# Read-outs that look alike come from different tables or passages of the source.
# Tests used:
# α2-ARs [1] = target: T1, α2-ARs (Homo sapiens, UniProt P08913); assay: [35S]GTPγS binding assay (agonist stimulation) in human brain cortical membranes; format: biochemical; settings: for stimulation of [35S]GTPγS binding (agonist dose-response plot): compound alone
# Source text: The α2-ARs are G-protein coupled receptors (GPCRs), and as such, when the endogenous ligand binds to the receptor, a change in the conformation of the G-proteins occurs leading to the exchange of GDP by GTP on the α-subunit, promoting their dissociation into α-GTP and βγ subunits, and resulting in transmembrane signalling. A direct evaluation of this G-protein activity can be made by determining the guanine nucleotide exchange using radiolabelled GTP analogues. The [^35S]GTPγS binding assay constitutes a functional measure of the interaction of the receptor and the G-protein and is a useful tool to distinguish between agonists (increasing the nucleotide binding), inverse agonists (decreasing the nucleotide binding), and neutral antagonists (not affecting the nucleotide binding) of GPCRs.
# (§1) Preparation of membranes. Neural membranes (P2 fractions) were prepared from the PFC of human brains obtained at autopsy in the Instituto Vasco de Medicine Legal, Bilbao, Spain. Postmortem human brain samples of each subject (˜1 g) were homogenized using a Teflon-glass grinder (10 up-and-down strokes at 1500 rpm) in 30 volumes of homogenization buffer (1 mM MgCl2, and 5 mM Tris-HCl, pH 7.4) supplemented with 0.25 M sucrose. The crude homogenate was centrifuged for 5 min at 1000×g (4° C.) and the supernatant was centrifuged again for 10 min at 40000×g (4° C.). The resultant pellet was washed twice in 20 volumes of homogenization buffer and recentrifuged in similar conditions. Aliquots of 1 mg protein were stored at −70° C. until assay.
# [^35S]GTPγS binding assays. The incubation buffer for measuring [^35S]GTPγS binding to brain membranes contained, in a total volume of 500 μL, 1 mM EGTA, 3 mM MgCl2, 100 mM NaCl, […], 50 mM Tris-HCl at pH 7.4 and 0.5 nM [^35S]GTPγS. Proteins aliquots were thawed and re-suspended in the same buffer. The incubation was started by addition of the membrane suspension (40 μg of membrane proteins) to the previous mixture and was performed at 30° C. for 120 min with shaking. In order to evaluate the influence of the compounds on [^35S]GTPγS binding, 8 concentrations (10^−10 to 10^−3M) of the different compounds were added to the assay. Incubations were terminated by adding 3 mL of ice-cold re-suspension buffer followed by rapid filtration through Whatman GF/C filters pre-soaked in the same buffer. The filters were rinsed twice with 3 mL of ice-cold re-suspension buffer, transferred to vials containing 5 mL. of OptiPhase HiSafe II cocktail (Wallac, UK) and the radioactivity trapped was determined by liquid scintillation spectrometry (Packard 2200CA). […] Non-specific binding of the radioligand was defined as the remaining [^35S]GTPγS binding in the presence of 10 μM unlabelled GTPγS.
# α2-ARs [2] = target: T1, α2-ARs; assay: UK14304 stimulation of [35S]GTPγS binding in absence or presence of compounds (antagonism test); format: biochemical; settings: human brain PFC, in vitro, 10^−5 M
# Protocol: as §1
# [^35S]GTPγS binding assays. The incubation buffer for measuring [^35S]GTPγS binding to brain membranes contained, in a total volume of 500 μL, 1 mM EGTA, 3 mM MgCl2, 100 mM NaCl, […], 50 mM Tris-HCl at pH 7.4 and 0.5 nM [^35S]GTPγS. Proteins aliquots were thawed and re-suspended in the same buffer. […] The filters were rinsed twice with 3 mL of ice-cold re-suspension buffer, transferred to vials containing 5 mL. of OptiPhase HiSafe II cocktail (Wallac, UK) and the radioactivity trapped was determined by liquid scintillation spectrometry (Packard 2200CA). […]
# [3] = test system: extracellular NA levels in the PFC; assay: In-vivo microdialysis, extracellular NA in the PFC of freely moving rats; set-up: species or system rat; settings: for Emax, extracellular NA levels: local administration by reverse dialysis 1-100 μM in PFC
# Source text: The antagonistic properties of derivative 8b in-vitro, were substantiated by testing its effect on noradrenergic transmission in vivo using microdialysis experiments. This technique is a widely accepted method for sampling the extracellular fluid of the brain, allowing the study of different neurotransmitters in the extracellular area where the probe is implanted. This technique has been used to investigate the effect of different compounds on NA concentrations in the PFC, an area widely implicated in depression. The increase of NA concentration in the PFC of freely moving rats after drug administration is accepted as a good predictor for antidepressant activity. In this context, many antidepressants, including the α2-AR antagonist Mirtazapine, are able to increase dialysate levels of NA in the PFC.
# Compounds 8b and RX821002 were dissolved in aCSF and perfussed via reverse dialysis at the time indicated by the arrows (every 70 minutes). Data correspond to the mean±standard error mean values from 3 to 5 animals for each group, and are expressed as percentages of the corresponding basal values.
# Control rats were administered with the vehicle (saline). Intraperitoneal administration of compound 8b (10 mg/kg) increased NA extracellular concentration by 161±30% in the PFC. Data are given as mean±standard error mean values from 4-5 separate animals for each group and are expressed as percentages of the corresponding basal values. The arrow represents the time of administration of the compound or vehicle.
# Microdialysis experiments Male Sprague-Dawley rats (250-300 g) were implanted with a probe in a stereotaxic apparatus under chloral hydrate anaesthesia (400 mg/kg i.p.). The probe was located in the prefrontal cortex (PFC) according to the co-ordinates of the atlas of Paxinos and Watson (AP (anterior to bregma) +2.8 mm, L (lateral from the mid-sagittal suture) +1 mm, DV (ventral from the dura surface) −5 mm). Experiments were performed 20-24 h after the probe implantation and aCSF (148 mM NaCl, 2.7 mM KCl, 1.2 mM CaCl2 and 0.85 mM MgCl2; pH 7.4) was pumped at a flow rate of 1 μl/min (CMA/Microdialysis infusion pump). […] Samples were collected every 35 min and NA concentrations analyzed by HPLC apparatus with amperometric detection (Hewlett-Packard model 1049A) at an oxidizing potential of +650 mV. […] Samples (injection volume 30 μl) were injected and NA analyzed in a run time of 10 min. […] All measures of extracellular NA concentrations are expressed as percentage of the baseline value±s.e.mean. One-way analysis of variance (ANOVA) for control group or two-way ANOVA between control and each treated group was assessed for statistical analysis. […]
# Tail suspension test = format: in vivo, rat
# Source text: FIG. 4 illustrates the rat tail suspension test for a number of compounds. The tail suspension test has become one of the most widely used models for assessing antidepressant-like activity in mice. The test is based on the fact that animals subjected to the short-term, inescapable stress of being suspended by their tail, will develop an immobile posture. Antidepressant medications reverse the immobility and promote the occurrence of escape-related behaviour.
# α2-ARs [4] = settings: J. Med. Chem. 2007 and 2008 studies; cited from earlier work
# T1 sequence (P08913 whole entry): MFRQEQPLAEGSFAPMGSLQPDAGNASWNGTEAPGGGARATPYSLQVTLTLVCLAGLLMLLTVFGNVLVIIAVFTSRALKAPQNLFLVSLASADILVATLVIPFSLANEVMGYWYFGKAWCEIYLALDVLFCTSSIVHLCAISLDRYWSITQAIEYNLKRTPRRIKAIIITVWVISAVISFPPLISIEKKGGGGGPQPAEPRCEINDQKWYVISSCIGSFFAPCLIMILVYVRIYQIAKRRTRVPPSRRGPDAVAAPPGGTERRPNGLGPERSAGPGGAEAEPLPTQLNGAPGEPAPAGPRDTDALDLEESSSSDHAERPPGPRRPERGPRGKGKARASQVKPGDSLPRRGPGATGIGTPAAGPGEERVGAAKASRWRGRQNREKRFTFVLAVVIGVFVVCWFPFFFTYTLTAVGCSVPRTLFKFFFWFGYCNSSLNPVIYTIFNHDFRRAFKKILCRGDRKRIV
stimulation of [35S]GTPγS binding (agonist dose-response plot) (α2-ARs [1]),Emax (α2-ARs [1]; read-out: Emax (%)) [%],Compound,Emax (α2-ARs [1]) [%],also measured
stimulated binding of [^35S]GTPγS,92,"CCN(C)c1ccc(NC(=N)N)cc1 [Compound 9b, N-[4-(ethyl-methyl-amino)-phenyl]-guanidine]",–,–
did not stimulate binding of [^35S]GTPγS,–,"CCNc1ccc(NC(=N)N)cc1 [Compound 8b, N-(4-ethylamino-phenyl)-guanidine]",–,"nature at α2-ARs from shift of UK14304 EC50 (α2-ARs [2]): behaves as an antagonist; ability to cross the blood brain barrier (BBB) ([3]; inferred from NA increase after intraperitoneal administration): ability of the compound to cross the blood brain barrier; increase of NA extracellular concentration ([3]; intraperitoneal 10 mg/kg, PFC, percentages of basal values): 161±30%; Emax, extracellular NA levels ([3]; percentages of basal values): 304±54%; performance against fluoxetine (Tail suspension test; 8b 10 mg/kg vs fluoxetine 40 mg/kg): vastly outperforms; time in immobile posture (Tail suspension test; FIG. 4, against all other compounds tested): shortest length of time"
stimulated binding of [^35S]GTPγS,89,"CCN(CC)c1ccc(NC(=N)N)cc1 [Compound 17, reference compound]",–,–
stimulated binding of [^35S]GTPγS,87,"CNc1ccc(NC(=N)N)cc1 [Compound 7b, N-(4-methylamino-phenyl)-guanidine]",–,–
–,–,c1cc2c(cc1NC1=NCCN1)OCO2 [5′],–,behaviour at α2-ARs (α2-ARs [4]): antagonist behaviour
–,–,N=C(N)Nc1ccc2c(c1)CCCC2 [6′],–,behaviour at α2-ARs (α2-ARs [4]): antagonist behaviour
–,–,"COC1(C2=NCCN2)COc2ccccc2O1 (stereo not shown) [RX821002, 2-methoxy-idazoxan, reference compound]",–,"Emax, extracellular NA levels ([3]; percentages of basal values): 290±35%"

Compound,stimulation of [35S]GTPγS binding (agonist dose-response plot) (α2-ARs [1]),Emax (α2-ARs [1]; read-out: Emax (%)) [%],Emax (α2-ARs [1]) [%],also measured
"CCN(C)c1ccc(NC2=NCCN2)cc1 [Compound 6b, N-Ethyl-N′-imidazolidin-2-ylidene-N-methyl-benzene-1,4-diamine]",stimulated binding of [^35S]GTPγS,–,103,–
"CNc1ccc(NC2=NCCN2)cc1 [Compound 4b, N-imidazolidin-2-ylidene-N′-methyl-benzene-1,4-diamine]",stimulated binding of [^35S]GTPγS,–,98,–
"CCNc1ccc(NC2=NCCN2)cc1 [Compound 5b, N-ethyl-N′-imidazolidin-2-ylidene-benzene-1,4-diamine]",stimulated binding of [^35S]GTPγS,–,95,–

# Reference: US20100160332A1, “a2-Adrenoceptor Ligands” (The Provost, Fellows and Scholars of the College of the …, priority 2008, published 2010)
